Source: patent US20180228815A1, “NARINGENIN AND ASIATIC ACID COMBINATION TREATMENT OF CANCERS” (The Chinese University of Hong Kong, priority 2016, published 2018)

Tested on: bone marrow-derived NK cells
Test: Flow cytometry of bone marrow-derived NK cell differentiation (NK1.1+ CD122+)
Type: cell-based, mouse
Details: TGF-β1 at 5 ng/ml; 80% without TGF-β1
Protocol: FIGS. 15A-15B. Combination of AA and NG attenuates TGF-β1 induced inhibition on NK cell differentiation. […] (FIG. 15B) Flow cytometry detects that the effect of AA, NG, and their combination on bone marrow-derived NK differentiation in response to TGF-β1 (5 ng/ml). Each error bar represents the mean±SEM for groups of three independent experiments. *** p<0.001 compared to TGF-β1; ### p<0.001 as indicated.
After euthanasia, bone marrow cells were isolated from C57BL/6 mice following the protocol as previously described (10). Bone marrow cells were then seeded at the density of 1×10^6 cells/ml in MEMα medium (Gibco, Thermo Fisher Scientific Inc., MA, USA) containing 10% FBS supplemented with 1 ng/ml IL-7, 10 ng/ml Flt3L, 30 ng/ml SCF, 50 ng/ml IL-15 (Peprotech, NJ, USA) and […] β-Mercaptoethanol (Gibco, Thermo Fisher Scientific Inc., MA, USA) and cultured for 4 days. Then transferred cells to MEMα medium containing 10% FBS supplemented with 50 ng/ml IL-15, 20 ng/ml IL-2 and […] β-Mercaptoethanol to induce NK cells maturation for another 3 days.
Peripheral blood NK cells and cultured NK cells were analyzed using various markers as previously described (10), including rat anti-mouse CD16/CD32 antibody (BD Pharmingen, BD Biosciences, CA, USA), APC-conjugated anti-mouse NK1.1, PE-conjugated anti-mouse NKp46, PE-conjugated anti-mouse CD122 (eBioscience Inc., CA, USA) and Alexa 488-conjugated anti-mouse/human CD11b Antibody (Biolegend, CA, USA). After immunostaining, cells were resuspended with 200 μl staining buffer and analyzed with BD Accuri™ C6 Cytometer (BD Biosciences, CA, USA).

Substance: TGF-β1: cytokine added to NK cell cultures to suppress NK cell development [reference compound]
- NK1.1+ CD122+ cell (immature NK cells) proportion: 11%
